# Results: patent US20210032253A1, “PYRAZOLO[1,5-A][1,3,5]TRIAZINE-2-AMINE DERIVATIVE, PREPARATION METHOD THEREFOR AND MEDICAL USE THEREOF” (JIANGSU HENGRUI MEDICINE CO., LTD., priority 2018, published 2021)
# Key:
# Type in all cases: cell-based
# [1] = target: T1, adenosine A2a receptor (A2aR) (Homo sapiens, UniProt P29274); assay: Inhibition of adenosine A2a receptor cAMP signaling pathway in CHO-K1/A2aR cells (HTRF cAMP dynamic 2 kit); conditions: Table 1, 20 nM ethylcarbazole
# T1 construct: expressed in transfected cells; host or cells: CHO-K1
# Description: (§1) Test Example 1. Determination of the inhibitory activities of the compounds of the present disclosure on the adenosine A2a receptor (A2aR) cAMP signaling pathway, the adenosine A1 receptor (A1R) cAMP signaling pathway and the adenosine A3 receptor (A3R) cAMP signaling pathway.
# (§2) The inhibitory activities of the compounds of the present disclosure on the adenosine A2a receptor (A2aR) cAMP signaling pathway, the adenosine A1 receptor cAMP signaling pathway and the adenosine A3 receptor cAMP signaling pathway were determined by the following methods. The experimental method is briefly described as follows:
# CHO-K1/A2aR cells were cultured in DMEM/F12 medium containing 10% fetal bovine serum and 800 μg/mL Zeocin™. The cells were digested with the cell dissociation buffer during the experiment. The cells were resuspended in the HBSS buffer containing 20 mM HEPES and 0.1% bovine serum albumin and counted, and the cell density was adjusted to 10^6 cells/mL. In 384-well plates, each well was added with 5 μL of the cell suspension, and 2.5 µL of test compounds (4× concentration) formulated with the HBSS buffer containing 20 mM HEPES, 0.1% bovine serum albumin, 54 μM rolipram and 2.7 U/mL adenosine deaminase, and the plates were incubated at room temperature for 30 minutes. Each well was then added with 2.5 μL of ethylcarbazole (4× concentration) formulated with the balanced salt buffer containing 20 mM HEPES, 0.1% bovine serum albumin, 54 μM rolipram and 2.7 U/mL adenosine deaminase, and the plates were incubated at room temperature for 30 minutes. The final concentrations of the compounds were: 10000, 2000, 400, 80, 16, 3.2, 0.64, 0.128, 0.0256, 0.00512, and 0.001024 nM. The final concentration of ethylcarbazole was 20 nM. Intracellular cAMP concentration was determined with cAMP dynamic 2 kits. cAMP-d2 and Anti-cAMP—Eu-Cryptate were diluted respectively with the cAMP lysis buffer at a ratio of 1:4. Each well was added with 5 μL of the diluted cAMP-d2, followed by addition of 5 μL of the diluted Anti-cAMP—Eu-Cryptate, and the plates were incubated at room temperature in the dark for 1 hour. The HTRF signal values were read by the PHERAstar multi-function microplate reader.
# [2] = target: T2, adenosine A1 receptor (A1R) (Homo sapiens, UniProt P30542); assay: Inhibition of adenosine A1 receptor cAMP signaling pathway in CHO-K1/A1R cells (HTRF cAMP dynamic 2 kit); conditions: Table 2; for IC50: CHO-K1/A1R cells, cAMP, 10 μM forskolin, 10 nM CPA; for IC50 ratio (A1R/A2aR): selectivity A1R over A2aR
# T2 construct: expressed in transfected cells; host or cells: CHO-K1
# T2 sequence (P30542 1-326): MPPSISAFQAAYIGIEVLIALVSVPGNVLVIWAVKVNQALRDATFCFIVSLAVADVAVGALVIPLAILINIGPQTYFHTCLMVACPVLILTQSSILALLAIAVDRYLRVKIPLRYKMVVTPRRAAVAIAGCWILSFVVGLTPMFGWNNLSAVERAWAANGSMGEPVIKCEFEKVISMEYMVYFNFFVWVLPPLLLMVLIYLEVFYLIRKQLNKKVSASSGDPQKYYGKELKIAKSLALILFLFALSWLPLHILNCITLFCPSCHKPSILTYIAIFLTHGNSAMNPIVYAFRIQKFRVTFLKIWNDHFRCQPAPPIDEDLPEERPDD
# Description: as §1, §2
# CHO-K1/A1R cells were cultured in DMEMIF12 medium containing 10% fetal bovine serum and 1 mg/mL G418. The cells were digested with the cell dissociation buffer during the experiment. The cells were then resuspended in the HBSS buffer containing 20 mM HEPES and 0.1% bovine serum albumin and counted, and the cell density was adjusted to 5×10^5 cells/mL. In 384-well plates, each well was added with 12.5 μL of the cell suspension, and 6.25 μL of the test compounds (4× concentration) formulated with the HBSS buffer containing 20 mM HEPES, 0.1% bovine serum albumin, 54 μM rolipram and 2.7 U/mL adenosine deaminase, and the plates were incubated at room temperature for 30 minutes. Each well was then added with 6.25 μL of forskolin and N6-cyclopentyladenosine (4× concentration) formulated with the HBSS buffer containing 20 mM HEPES, 0.1% bovine serum albumin, 54 μM rolipram and 2.7 U/mL adenosine deaminase, and the plates were incubated at room temperature for 30 minutes. The final concentrations of the compounds were: 100000, 10000, 1000, 100, 10, 1, 0.1 and 0 nM. The final concentration of forskolin was 10 μM. The final concentration of CPA was 10 nM. Intracellular cAMP concentration was determined with cAMP dynamic 2 kits. cAMP-d2 and Anti-cAMP—Eu-Cryptate were diluted respectively with the cAMP lysis buffer at a ratio of 1:4. Each well was added with 12.5 μL of the diluted cAMP-d2, followed by addition of 12.5 μL of the diluted Anti-cAMP—Eu-Cryptate, and the plates were incubated at room temperature in the dark for 1 hour. The HTRF signal values were read by the PHERAstar multi-function microplate reader.
# [3] = target: T3, adenosine A3 receptor (A3R) (Homo sapiens, UniProt P0DMS8); assay: Inhibition of adenosine A3 receptor cAMP signaling pathway in CHO-K1/A3R cells (HTRF cAMP dynamic 2 kit); conditions: Table 3; for IC50: CHO-K1/A3R cells, cAMP, 10 μM forskolin, 5 nM 2Cl-IB-MECA; for IC50 ratio (A3R/A2aR): selectivity A3R over A2aR
# T3 construct: expressed in transfected cells; host or cells: CHO-K1
# T3 sequence (P0DMS8 1-318): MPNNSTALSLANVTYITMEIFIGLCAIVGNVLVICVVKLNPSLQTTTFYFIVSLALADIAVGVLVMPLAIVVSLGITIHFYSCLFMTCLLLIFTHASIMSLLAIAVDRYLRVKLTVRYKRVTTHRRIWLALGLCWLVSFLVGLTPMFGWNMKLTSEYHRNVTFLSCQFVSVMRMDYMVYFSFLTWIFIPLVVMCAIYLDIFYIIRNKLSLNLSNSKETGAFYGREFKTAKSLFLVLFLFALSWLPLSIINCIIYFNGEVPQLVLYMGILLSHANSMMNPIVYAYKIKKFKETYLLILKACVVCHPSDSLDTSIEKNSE
# Description: as §1, §2
# CHO-K1/A3R cells were cultured in DMEMIF12 medium containing 10% fetal bovine serum and 10 μg/mL puromycin. The cells were digested with the cell dissociation buffer during the experiment. The cells were resuspended in the HBSS buffer containing 20 mM HEPES and 0.1% bovine serum albumin and counted, and the cell density was adjusted to 5×10^5 cells/mL. In 384-well plates, each well was added with 12.5 μL of the cell suspension, and 6.25 μL of the test compounds (4× concentration) formulated with the HBSS buffer containing 20 mM HEPES, 0.1% bovine serum albumin, 54 μM rolipram and 2.7 U/mL adenosine deaminase, and the plates were incubated at room temperature for 30 minutes. Each well was then added with 6.25 μL of forskolin and 2Cl-IB-MECA (4× concentration) formulated with the HBSS buffer containing 20 mM HEPES, 0.1% bovine serum albumin, […] rolipram and 2.7 U/mL adenosine deaminase, and the plates were incubated at room temperature for 30 minutes. The final concentrations of the compounds were: 100000, 10000, 1000, 100, 10, 1, 0.1 and 0 nM. The final concentration of forskolin was 10 μM. The final concentration of 2Cl-IB-MECA was 5 nM. Intracellular cAMP concentration was determined with cAMP dynamic 2 kits. cAMP-d2 and Anti-cAMP—Eu-Cryptate were diluted respectively with the cAMP lysis buffer at a ratio of 1:4. Each well was added with 12.5 μL of the diluted cAMP-d2, followed by addition of 12.5 μL of the diluted Anti-cAMP—Eu-Cryptate, and the plates were incubated at room temperature in the dark for 1 hour. The HTRF signal values were read by the PHERAstar multi-function microplate reader. IC50 values for the inhibitory activities of the compounds were calculated by Graphpad Prism software, and are shown in Table 3.
# T1 sequence (P29274 whole entry): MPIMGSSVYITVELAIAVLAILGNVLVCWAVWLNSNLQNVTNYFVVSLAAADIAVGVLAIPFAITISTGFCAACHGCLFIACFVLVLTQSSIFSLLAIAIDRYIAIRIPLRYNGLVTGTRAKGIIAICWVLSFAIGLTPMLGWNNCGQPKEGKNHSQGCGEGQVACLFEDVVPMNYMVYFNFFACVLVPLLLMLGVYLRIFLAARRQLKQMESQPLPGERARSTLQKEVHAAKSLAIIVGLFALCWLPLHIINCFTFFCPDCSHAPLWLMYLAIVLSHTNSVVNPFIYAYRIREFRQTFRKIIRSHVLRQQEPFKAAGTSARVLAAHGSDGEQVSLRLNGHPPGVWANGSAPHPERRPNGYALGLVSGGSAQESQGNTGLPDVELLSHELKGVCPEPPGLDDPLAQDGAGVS
Compound,IC50 [1],IC50 [2],IC50 ratio (A1R/A2aR) [2],IC50 [3],IC50 ratio (A3R/A2aR) [3]
"Cc1ccc(-c2nc(N)nc3c(Nc4cccc(CN5CCN(C)CC5)n4)cnn23)o1 [Example 29, 4-(5-Methylfuran-2-yl)-N^8-(6-((4-methylpiperazin-1-yl)methyl)pyridin-2-yl)pyrazolo[1,5-a][1,3,5]triazine-2,8-diamine]",2.8 nM,3690 nM,>10^3,2180 nM,779^
"Cc1ccc(-c2nc(N)nc3c(Nc4cccc(CN5CC6COCC6C5)n4)cnn23)o1 (stereo not drawn) [Example 30, 4-(5-Methylfuran-2-yl)-N^8-(6-((tetrahydro-1H-furo[3,4-c]pyrrol-5(3H)-yl)methyl)pyridin-2-yl)pyrazolo[1,5-a][1,3,5]triazine-2,8-diamine]",2.87 nM,684 nM,238^,7600 nM,>10^3
"Cc1ccc(-c2nc(N)nc3c(Nc4cccc(CN5CC6(COC6)C5)n4)cnn23)o1 [Example 32, N^8-(6-((2-Oxa-6-azaspiro[3.3]heptan-6-yl)methyl)pyridin-2-yl)-4-(5-methylfuran-2-yl)pyrazolo[1,5-a][1,3,5]triazine-2,8-diamine]",3.74 nM,287 nM,78^,5610 nM,>10^3
